Data taken from patent publication US9181231B2, “Pyruvate kinase activators for use for increasing lifetime of the red blood cells and treating anemia” (AGIOS PHARMACEUTICALS, INC, priority 2011, dated 2015).

Assays:
Format in all cases: biochemical
Conditions in all cases: compound at 1 μM
PKR wt = PKR wt (Homo sapiens, UniProt P30613); test: PKR Wide Type Single Point Percent Activation Assay
Procedure: PKR Wide Type Single Point Percent Activation Assay
(§1) A compound described herein was diluted with DMSO and tested at 1 μM concentration. The enzyme was diluted in 1× Buffer: (100 mM KCl, 50 mM Tris 7.5, 5 mM MgCl2, 1 mM DTT, 0.03% BSA). 2 μL of compound solution was first added into wells, and then 180 μL of enzyme solution was added. Assays were assembled except for ADP, and plates were stored for 60 minutes at RT. 20 μL ADP was added to start the assay and assay output was evaluated using OD340 at SpectraMax. The assay was run at room temperature.
PKR wt (100 ng/well), Tris pH 7.5 (50 mM), KCl (100 mM), MgCl2 (5 mM), ADP (0.48 mM), PEP (0.15 mM), NADH (180 μM), LDH (0.5 units, Sigma 59023), DTT (1 mM) and BSA (0.03%).

PKR T384W = PKR T384W Single Point Percent Activation Assay
Procedure: PKR T384W Single Point Percent Activation Assay
as §1, with “180 μL enzyme solution” for “180 μL of enzyme solution”
PKR T384W soluble (300 ng/well), Tris pH 7.5 (50 mM), KCl (100 mM), MgCl2 (5 mM), ADP (0.08 mM), PEP (0.23 mM), NADH (180 μM), LDH (0.5 units, Sigma 59023), DTT (1 mM) and BSA (0.03%).

PKR R510Q = PKR R510Q (Homo sapiens, UniProt P30613, R510Q); test: PKR R510Q Single Point Percent Activation Assay
Procedure: PKR R510Q Single Point Percent Activation Assay
as §1
PKR R510Q (40 ng/well), Tris pH 7.5 (50 mM), KCl (100 mM), MgCl2 (5 mM), ADP (0.2 mM), PEP (0.11 mM), NADH (180 μM), LDH (0.5 units, Sigma 59023), DTT (1 mM) and BSA (0.03%).

PKR R532W = PKR R532W (Homo sapiens, UniProt P30613, R532W); test: PKR R532W Single Point Percent Activation Assay
Procedure: PKR R532W Single Point Percent Activation Assay
as §1
PKR R532W (100 ng/well), Tris pH 7.5 (50 mM), KCl (100 mM), MgCl2 (5 mM), ADP (0.36 mM), PEP (0.1 mM), NADH (180 μM), LDH (0.5 units, Sigma 59023), DTT (1 mM) and BSA (0.03%).

Sequence of PKR R510Q (P30613 whole entry R510Q): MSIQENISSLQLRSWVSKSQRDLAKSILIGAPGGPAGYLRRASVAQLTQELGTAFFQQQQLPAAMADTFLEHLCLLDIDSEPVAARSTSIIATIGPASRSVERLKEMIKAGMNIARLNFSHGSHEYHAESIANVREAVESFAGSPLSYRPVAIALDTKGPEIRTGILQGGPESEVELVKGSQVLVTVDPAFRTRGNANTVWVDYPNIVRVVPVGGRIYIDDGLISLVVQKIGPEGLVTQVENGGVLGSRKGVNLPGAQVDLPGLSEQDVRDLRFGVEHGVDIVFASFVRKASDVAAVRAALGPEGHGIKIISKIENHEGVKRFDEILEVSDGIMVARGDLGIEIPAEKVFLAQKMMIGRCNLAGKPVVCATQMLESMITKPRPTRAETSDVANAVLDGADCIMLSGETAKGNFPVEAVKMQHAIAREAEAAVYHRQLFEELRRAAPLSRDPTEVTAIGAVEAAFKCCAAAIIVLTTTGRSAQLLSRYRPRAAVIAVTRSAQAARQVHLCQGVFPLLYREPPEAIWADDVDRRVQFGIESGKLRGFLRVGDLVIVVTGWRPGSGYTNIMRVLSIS
Sequence of PKR wt (P30613 whole entry): as the sequence (P30613 whole entry R510Q) above, with Q510R counted along it
Sequence of PKR R532W (P30613 whole entry R532W): as the sequence (P30613 whole entry R510Q) above, with Q510R, R532W counted along it

| SMILES | % Act. WT (PKR wt) | % Act. T384W (PKR T384W) | % Act. R510Q (PKR R510Q) | % Act. R532W (PKR R532W) |
| --- | --- | --- | --- | --- |
| CN1C(=O)COc2ccc(S(=O)(=O)Nc3ccc(F)c(Cl)c3)cc21 | B (a % activation at 1 μM of from 101 to 500) | B (a % activation at 1 μM of from 101 to 500) | B (a % activation at 1 μM of from 101 to 500) | B (a % activation at 1 μM of from 101 to 500) |
| O=C(c1c(F)cccc1F)N1CCN(S(=O)(=O)c2ccc3c(c2)OCCO3)CC1 | B (a % activation at 1 μM of from 101 to 500) | B (a % activation at 1 μM of from 101 to 500) | B (a % activation at 1 μM of from 101 to 500) | B (a % activation at 1 μM of from 101 to 500) |
| O=C1Oc2ccc(S(=O)(=O)Nc3ccc(F)c(Cl)c3)cc2CN1Cc1ccccc1 | B (a % activation at 1 μM of from 101 to 500) | B (a % activation at 1 μM of from 101 to 500) | B (a % activation at 1 μM of from 101 to 500) | B (a % activation at 1 μM of from 101 to 500) |
| O=C1CN(Cc2ccccc2)c2cc(S(=O)(=O)Nc3cccc(Cl)c3)ccc2O1 | A (a % activation at 1 μM of from 1 to 100) | A (a % activation at 1 μM of from 1 to 100) | B (a % activation at 1 μM of from 101 to 500) | A (a % activation at 1 μM of from 1 to 100) |
| O=C1Nc2cc(S(=O)(=O)Nc3cccc(F)c3)ccc2NC1Cc1ccccc1 (stereo not shown) | B (a % activation at 1 μM of from 101 to 500) | B (a % activation at 1 μM of from 101 to 500) | B (a % activation at 1 μM of from 101 to 500) | B (a % activation at 1 μM of from 101 to 500) |
| CN1c2ccc(S(=O)(=O)Nc3cccc(F)c3)cc2NC(=O)C1Cc1ccccc1 (stereo not shown) | B (a % activation at 1 μM of from 101 to 500) | B (a % activation at 1 μM of from 101 to 500) | B (a % activation at 1 μM of from 101 to 500) | B (a % activation at 1 μM of from 101 to 500) |
| CN1c2cc(S(=O)(=O)Nc3cccc(F)c3)ccc2OC(=O)[C@@H]1Cc1ccccc1 | B (a % activation at 1 μM of from 101 to 500) | B (a % activation at 1 μM of from 101 to 500) | B (a % activation at 1 μM of from 101 to 500) | A (a % activation at 1 μM of from 1 to 100) |
